In patent publication US10117942B2, “Photoactivatable lipid-based nanoparticles as vehicles for dual agent delivery” (The United States of America, as represented by the …, priority 2013, dated 2018):

Legend:
[1] = at physiological pH; cited from earlier work
[2] = 0.5 mg or 2.5 mg liposomal lipid
Protocol: As a control, mice were injected with doxorubicin in the absence of liposomes.

organ uptake (fluorescence Ex=500, Em=600) [2] | Structure (SMILES) | log P [1]
– | CCCCCCOC(C)c1c(C)c2cc3nc(c4c5[nH]c(cc6nc(cc1[nH]2)C(C)=C6CC)c(C)c5C(=O)C4)[C@@H](CCC(=O)O)[C@@H]3C (some centres unmarked) [HPPH, 2-[1-hexyloxyethyl]-2-devinyl pyropheophorbide-a] | 5.6
no fluorescence was observed | COc1cccc2c1C(=O)c1c(O)c3c(c(O)c1C2=O)C[C@@](O)(C(=O)CO)C[C@@H]3O[C@H]1C[C@H](N)[C@H](O)[C@H](C)O1 [doxorubicin] | –
